Measurements reported in ChEMBL document CHEMBL3585264 (J Med Chem, 2015).
One block for each compound: values may come before it.

Tests used:
[1] = test system: Rattus norvegicus; assay: (§1) Tmax in rat at 5 mg/kg, po; format: ADME, organism-based; details: in vivo, BLD = below limit of detection
[2] = Cmax in rat at 5 mg/kg, po; format: ADME, organism-based; parameters: dose 5 mg/kg, route oral; details: in vivo
[3] = as §1; format: ADME, organism-based; details: in vivo
[4] = AUC (0 to infinity) in rat at 5 mg/kg, po; format: ADME, organism-based; parameters: dose 5 mg/kg, time infinity, route oral; details: in vivo
[5] = Mean residence time in rat at 2 mg/kg, iv; format: ADME, organism-based; details: in vivo
[6] = Oral bioavailability in rat at 5 mg/kg; format: ADME, organism-based; details: in vivo
[7] = Plasma concentration in CB17 SCID mouse xenografted with human PC3 cells at 10 mg/kg, po measured at 1 hr by LC/MS-MS analysis; format: ADME, organism-based, PC-3
[8] = Plasma concentration in CB17 SCID mouse xenografted with human PC3 cells at 10 mg/kg, po measured at 3 hrs by LC/MS-MS analysis; format: ADME, organism-based, PC-3
[9] = Plasma concentration in CB17 SCID mouse xenografted with human PC3 cells at 10 mg/kg, po measured at 6 hrs by LC/MS-MS analysis; format: ADME, organism-based, PC-3
[10] = Plasma concentration in CB17 SCID mouse xenografted with human PC3 cells at 10 mg/kg, po measured at 10 hrs by LC/MS-MS analysis; format: ADME, organism-based, PC-3
[11] = Plasma concentration in CB17 SCID mouse xenografted with human PC3 cells at 10 mg/kg, po measured at 24 hrs by LC/MS-MS analysis; format: ADME, organism-based, PC-3
[12] = Plasma concentration in CB17 SCID mouse xenografted with human PC3 cells at 1 mg/kg, po measured at 1 hr by LC/MS-MS analysis; format: ADME, organism-based, PC-3
[13] = Plasma concentration in CB17 SCID mouse xenografted with human PC3 cells at 1 mg/kg, po measured at 3 hrs by LC/MS-MS analysis; format: ADME, organism-based, PC-3
[14] = Plasma concentration in CB17 SCID mouse xenografted with human PC3 cells at 1 mg/kg, po measured at 6 hrs by LC/MS-MS analysis; format: ADME, organism-based, PC-3
[15] = Plasma concentration in CB17 SCID mouse xenografted with human PC3 cells at 1 mg/kg, po measured at 10 hrs by LC/MS-MS analysis; format: ADME, organism-based, PC-3
[16] = Plasma concentration in CB17 SCID mouse xenografted with human PC3 cells at 1 mg/kg, po measured at 24 hrs by LC/MS-MS analysis; format: ADME, organism-based, PC-3
[17] = Oral bioavailability in mouse at 5 mg/kg; format: ADME, organism-based; details: in vivo
[18] = Oral bioavailability in dog at 0.3 mg/kg; format: ADME, organism-based, Canis lupus familiaris; details: in vivo

- Tmax [1]: BLD
SMILES: O=C1CN(CCC2CCOCC2)c2nc(-c3ccc(-c4nc[nH]n4)cc3)cnc2N1

- Cmax [2]: 20 nM
- Tmax [3]: 0.9 h
- AUC(0-inf) [4]: 0.18 µM·h
SMILES: O=C1CN(CCC2CCOCC2)c2nc(-c3ccc(-c4nc[nH]n4)nc3)cnc2N1

- Cmax [2]: 550 nM
- AUC(0-inf) [4]: 5.27 µM·h
- MRT [5]: 1.2 h
- bioavailability [6]: 50%
SMILES: CCN1CC(=O)Nc2ncc(-c3ccc(-c4nc[nH]n4)nc3C)nc21

- Cmax [2]: 1670 nM
- AUC(0-inf) [4]: 27.5 µM·h
- MRT [5]: 4.3 h
- bioavailability [6]: 78%
- concentration at 1 h [7]: 6780 nM
- concentration at 3 h [8]: 5690 nM
- concentration at 6 h [9]: 2100 nM
- concentration at 10 h [10]: 1180 nM
- concentration at 24 h [11]: 800 nM
- concentration at 1 h [12]: 530 nM
- concentration at 3 h [13]: 340 nM
- concentration at 6 h [14]: 130 nM
- concentration at 10 h [15]: 120 nM
- concentration at 24 h [16]: 5 nM
- bioavailability [17]: 53%
- bioavailability [18]: 100%
SMILES: CCN1C(=O)CNc2ncc(-c3ccc(-c4nc[nH]n4)nc3C)nc21 [CC-115]
